These results are taken from ChEMBL document CHEMBL3399947, “Structure activity relationship of selective GABA uptake inhibitors” (Bioorg Med Chem, 2015).

A value given as a limit tells only on which side of the number the result lay.

Common to all, as to format: cell-based
One assay deals with T1, GABA transporter 2 (Mus musculus, UniProt P31651).
T1 sequence (P31651 whole entry): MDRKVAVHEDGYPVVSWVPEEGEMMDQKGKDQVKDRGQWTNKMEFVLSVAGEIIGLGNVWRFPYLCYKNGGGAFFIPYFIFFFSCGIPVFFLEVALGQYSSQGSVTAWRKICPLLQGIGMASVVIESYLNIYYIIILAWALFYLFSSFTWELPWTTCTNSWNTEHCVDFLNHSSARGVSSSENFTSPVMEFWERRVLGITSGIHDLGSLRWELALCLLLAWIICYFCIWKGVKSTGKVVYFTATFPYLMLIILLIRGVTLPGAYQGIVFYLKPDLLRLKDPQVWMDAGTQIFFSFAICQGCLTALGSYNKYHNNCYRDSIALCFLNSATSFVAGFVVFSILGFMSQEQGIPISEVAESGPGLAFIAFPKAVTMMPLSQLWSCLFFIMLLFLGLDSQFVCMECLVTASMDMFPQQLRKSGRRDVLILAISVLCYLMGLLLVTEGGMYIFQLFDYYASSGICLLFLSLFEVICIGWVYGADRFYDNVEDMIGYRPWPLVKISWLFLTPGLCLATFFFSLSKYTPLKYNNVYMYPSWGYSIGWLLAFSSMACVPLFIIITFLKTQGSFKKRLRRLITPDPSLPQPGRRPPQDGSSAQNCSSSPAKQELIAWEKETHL
Nature of the assay: Inhibition of mouse mGAT2 expressed in HEK293 cells assessed as inhibition of [3H]GABA uptake after 3 mins incubation by TopCount microplate scintillation counting analysis. As to conditions: read-out: IC50.

The target of another assay is T2, GABA transporter 3 (Mus musculus, UniProt P31649).
T2 sequence (P31649 whole entry): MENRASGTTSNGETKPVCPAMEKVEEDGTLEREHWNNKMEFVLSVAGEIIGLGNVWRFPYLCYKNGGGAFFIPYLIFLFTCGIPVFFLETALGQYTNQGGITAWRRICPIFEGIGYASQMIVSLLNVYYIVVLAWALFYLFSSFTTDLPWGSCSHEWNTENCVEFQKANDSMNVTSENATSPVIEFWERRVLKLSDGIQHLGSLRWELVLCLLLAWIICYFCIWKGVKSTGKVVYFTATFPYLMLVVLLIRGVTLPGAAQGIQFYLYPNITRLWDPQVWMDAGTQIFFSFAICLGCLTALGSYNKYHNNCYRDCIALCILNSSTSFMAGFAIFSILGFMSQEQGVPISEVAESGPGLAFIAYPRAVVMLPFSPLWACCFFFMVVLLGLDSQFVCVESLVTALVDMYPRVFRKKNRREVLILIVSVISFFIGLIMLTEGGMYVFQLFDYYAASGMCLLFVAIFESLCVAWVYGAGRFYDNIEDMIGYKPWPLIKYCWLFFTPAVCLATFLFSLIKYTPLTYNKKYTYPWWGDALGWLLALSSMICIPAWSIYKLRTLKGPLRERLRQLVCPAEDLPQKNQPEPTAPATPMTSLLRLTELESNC
Put plainly: Inhibition of mouse mGAT3 expressed in HEK293 cells assessed as inhibition of [3H]GABA uptake after 3 mins incubation by TopCount microplate scintillation counting analysis.

The target of assay [1] is Sodium- and chloride-dependent GABA transporter 1 (Mus musculus, UniProt P31648). Put plainly: Inhibition of mouse mGAT1 expressed in HEK293 cells assessed as inhibition of [3H]GABA uptake after 3 mins incubation by TopCount microplate scintillation counting analysis.
The target of the next assay is T3, GABA transporter 4 (Mus musculus, UniProt P31650).
T3 sequence (P31650 whole entry): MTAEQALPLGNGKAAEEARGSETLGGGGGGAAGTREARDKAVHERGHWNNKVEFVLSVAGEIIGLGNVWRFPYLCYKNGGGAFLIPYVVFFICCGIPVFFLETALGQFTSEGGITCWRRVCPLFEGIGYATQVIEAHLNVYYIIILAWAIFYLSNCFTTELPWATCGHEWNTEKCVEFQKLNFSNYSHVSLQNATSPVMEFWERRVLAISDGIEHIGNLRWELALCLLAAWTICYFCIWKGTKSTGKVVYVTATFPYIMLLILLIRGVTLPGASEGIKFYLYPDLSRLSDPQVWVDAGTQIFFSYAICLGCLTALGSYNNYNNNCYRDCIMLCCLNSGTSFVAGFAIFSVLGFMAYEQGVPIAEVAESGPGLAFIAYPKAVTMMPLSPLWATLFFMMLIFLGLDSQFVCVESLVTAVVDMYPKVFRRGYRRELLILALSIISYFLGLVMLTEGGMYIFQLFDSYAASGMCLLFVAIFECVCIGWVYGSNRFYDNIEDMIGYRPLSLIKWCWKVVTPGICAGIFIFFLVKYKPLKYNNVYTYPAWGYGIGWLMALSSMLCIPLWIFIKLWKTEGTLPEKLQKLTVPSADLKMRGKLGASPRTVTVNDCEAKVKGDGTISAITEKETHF
Nature of the assay: Inhibition of mouse mGAT4 expressed in HEK293 cells assessed as inhibition of [3H]GABA uptake after 3 mins incubation by TopCount microplate scintillation counting analysis.

With `CCC(C)N1CCN(CCC=C(c2sccc2C)c2sccc2C)CC(C(=O)O)C1` (centres undefined), the IC50 on GABA transporter 2 was 160 µM; at GABA transporter 3 (read-out: IC50) it was > 1000 µM; in assay [1] (read-out: IC50), > 1000 µM; at GABA transporter 4 (read-out: IC50), > 1000 µM.
For `CN(CCCP(=O)(O)O)CCON=C(c1ccccc1)c1ccccc1`, the IC50 (at GABA transporter 2; on GABA transporter 3 (read-out: IC50); in assay [1] (read-out: IC50); on GABA transporter 4 (read-out: IC50)) was > 1000 µM in each case.
For the molecule `CCCCN1CCN(CCON=C(c2ccccc2)c2ccccc2)CC(C(=O)O)C1` (centres undefined), the IC50 (on GABA transporter 2; at GABA transporter 3 (read-out: IC50); in assay [1] (read-out: IC50); at GABA transporter 4 (read-out: IC50)) was > 1000 µM throughout.
Regarding `CCN1CCN(CCON=C(c2ccccc2)c2ccccc2)CC(C(=O)O)C1` (centres undefined), the IC50 (at GABA transporter 2; on GABA transporter 3 (read-out: IC50); in assay [1] (read-out: IC50); on GABA transporter 4 (read-out: IC50)) was > 1000 µM each time.
As for `CN(CCC=C1c2ccccc2CCc2ccccc21)[C@@H]1CCCC[C@H]1C(=O)O`, the IC50 at GABA transporter 2 was 119 µM; on GABA transporter 3 (read-out: IC50) it was 966 µM; in assay [1] (read-out: IC50), 614 µM; at GABA transporter 4 (read-out: IC50) it was 883 µM.
The corresponding values for `CN(CCON=C(c1ccccc1)c1ccccc1)[C@@H]1CCCC[C@@H]1C(=O)O` are 443 µM, > 1000 µM, > 1000 µM and > 1000 µM.
As for `CNCCON=C(c1ccccc1)c1ccccc1`, the IC50 is 430 µM on GABA transporter 2, 1050 µM on GABA transporter 3 (read-out: IC50), > 2000 µM in assay [1] (read-out: IC50) and 829 µM at GABA transporter 4 (read-out: IC50).
On to `CN(CCC=C1c2ccccc2CCc2ccccc21)CCCP(=O)(O)O`, for which the IC50 (on GABA transporter 2; at GABA transporter 3 (read-out: IC50); in assay [1] (read-out: IC50); on GABA transporter 4 (read-out: IC50)) was > 1000 µM each time.
Turning to `CCCCN1CCN(CCC=C(c2sccc2C)c2sccc2C)CC(C(=O)O)C1` (centres undefined), the IC50 was 80.6 µM at GABA transporter 2; 650 µM on GABA transporter 3 (read-out: IC50); 185 µM in assay [1] (read-out: IC50); 501 µM in assay [1] (read-out: pIC50 (converted)); 681 µM at GABA transporter 4 (read-out: IC50).
As to `CN(CCC=C1c2ccccc2CCc2ccccc21)[C@H]1CCCC[C@@H]1C(=O)O`, the IC50 was 139 µM at GABA transporter 2; 1240 µM on GABA transporter 3 (read-out: IC50); 962 µM in assay [1] (read-out: IC50); 715 µM at GABA transporter 4 (read-out: IC50); 724 µM on GABA transporter 4 (read-out: pIC50 (converted)).
As for `CN(CCC=C1c2ccccc2CCc2ccccc21)[C@H]1CCCC[C@H]1C(=O)O`, the IC50 at GABA transporter 2 is 147 µM; at GABA transporter 3 (read-out: IC50), 1840 µM; on GABA transporter 3 (read-out: pIC50 (converted)), 1450 µM; in assay [1] (read-out: IC50), 1360 µM; on GABA transporter 4 (read-out: IC50), 649 µM.
For the molecule `Cc1ccsc1C(=CCCN1CCN(Cc2ccccc2)CC(C(=O)O)C1)c1sccc1C` (centres undefined), the IC50 was 309 µM on GABA transporter 2, > 1000 µM at GABA transporter 3 (read-out: IC50), > 1000 µM in assay [1] (read-out: IC50) and > 1000 µM on GABA transporter 4 (read-out: IC50).
With `CCN1CCNC(C(=O)O)C1` (racemic), the IC50 (on GABA transporter 2; at GABA transporter 3 (read-out: IC50); in assay [1] (read-out: IC50); at GABA transporter 4 (read-out: IC50)) was > 1000 µM in each case.
Turning to `CCOC(=O)[C@H]1CCCC[C@H]1N(C)CCON=C(c1ccccc1)c1ccccc1`, the IC50 at GABA transporter 2 came to 114 µM; at GABA transporter 3 (read-out: IC50) it was 1050 µM; in assay [1] (read-out: IC50), 1240 µM; at GABA transporter 4 (read-out: IC50), 836 µM.
